The source of these data is PMC11889159 (Scientific Reports, 2025).

Several values for one entry are separate records, joined by “and”; a condition that tells them apart may be missing. Equal entries are not always repeated. Where two headings read alike, the source gives them in different places.

Data set [1] concerns the target T1, bovine serum albumin (BSA) (Bos taurus, UniProt P02769). Particulars: experimental ΔG versus docking ΔG at Site I.
Protocol: The three-dimensional structure of BSA was obtained from the RCSB Protein Data Bank (PDB) database (https://www.rcsb.org/) (PDB ID: 4f5s). […] Open Babel 3.1.1 software was utilized to convert the sdf format files from the PubChem database to pdb format. […] Additionally, the molecular visualization was conducted using Pymol version 2.6.0a0 for 3D visualization and LigPlot + version 2.2.8 for 2D visualization.
Data set [2] deals with T1, bovine serum albumin (BSA). In words: biochemical. As to conditions: logKb.
In data set [3] the target is T1, bovine serum albumin (BSA). Particulars: for λex/λem: pH 7.4. The text has this:
Three-dimensional fluorescence spectroscopy, or excitation-emission matrix (EEM) spectroscopy, offers distinct advantages and broad applications for analyzing interactions between small molecules and BSA[55].
The excitation wavelength was systematically scanned from 220 to 350 nm with 5 nm increments, while the emission spectra were simultaneously recorded across the 220–500 nm range at a scanning speed of 12,000 nm min^− 1. The excitation and emission slit widths were maintained at 10 nm throughout the measurements to ensure consistent spectral resolution.

Data set [4] addresses T1, bovine serum albumin (BSA). The method, then: UV absorption measurement is a simple yet effective technique for examining structural changes and complex formation. […] Variations in the absorbance near 280 nm signify interactions with small molecule drugs.
Absorption spectra were recorded using a UV-vis spectrophotometer (T6 New Century) over the wavelength range of 200–400 nm.

For data set [5], the target named is T1, bovine serum albumin (BSA). As to conditions: for τave (average fluorescence lifetime): free BSA 3.72 ns. The source says:
In general, the fluorescence lifetime measurement is the most definitive method to distinguish between dynamic and static quenching.

The target of data set [6] is T1, bovine serum albumin (BSA). In words: biochemical. The text has this: The inner filter effect (IFE) arises when high analyte concentrations (e.g., fluorophores, ligands, or biomolecules) attenuate excitation light or absorb emitted photons, effectively reducing the optical path length and consequently causing depressed fluorescence readings. To mitigate this phenomenon in our experimental system, we strategically optimized sample concentrations through preliminary calibration studies.
Fluorescence quenching mechanisms can be categorized into static, dynamic, and combined quenching. […] Combined quenching involves both mechanisms, where the fluorophore collides with and forms a stable complex with the quencher. These processes can be described by the Stern-Volmer equation[49]: [drawing 1]
Where F0 and F are the fluorescence intensities in the absence and presence of the quencher, respectively; KSV is the Stern-Volmer quenching constant; [Q] is the quencher concentration; Kq is the bimolecular quenching constant; and τ0 is the fluorescence lifetime in the absence of the quencher (6.3 × 10^− 9 s)[50]. […] (unit: mol/L), and the Y-axis represents the fluorescence intensity ratio F0/F. The data points represent the experimentally measured F0/F values, while the solid line is the linear fit. […] The slope obtained from the linear fit according to the Stern-Volmer equation represents the quenching constant (KSV).
The binding constant (Kb) is calculated using the following formula: […]
Where Kb is the binding constant, n is the number of binding sites per BSA molecule, F0 and F are the fluorescence intensities without and with the quencher, respectively, and [Q] is the quencher concentration. Linear regression is used to fit the data, resulting in a straight line whose slope indicates n (the number of binding sites), and the intercept gives logKb.
Where R is 8.314 J·mol^-1·K^-1, T is 298 K (273 + 25 °C), and Kb is the calculated binding constant.
Fluorescence spectra were acquired using a Hitachi F-7100 fluorescence spectrophotometer equipped with a 150 W xenon lamp and 10 mm quartz cuvette. The instrument parameters were maintained at excitation and emission bandwidths of 10 nm, with a scanning speed of 1200 nm·min^− 1 and PMT voltage of 400 V throughout the experiments.

In data set [7] the target is T1, bovine serum albumin (BSA). As to conditions: van't Hoff plot, 293, 298 and 310 K, pH 7.4.
Data set [8] concerns the target T1, bovine serum albumin (BSA). As to the kind of experiment: Job's method, stoichiometry of inclusion complexation with BSA. The data set is classed as binding. As to conditions: [BSA] + [TPT] = 2.0 × 10^-6 mol/L, λex 295 nm.
In data set [9] the target is T1, bovine serum albumin (BSA). As to the kind of experiment: biochemical. Particulars: LogKb, pH 7.4.
Details of data set [10]: method as in none printed. As to conditions: prolonged circulation; species and source not given; cited from earlier work.
Where [11] appears, read: Site marker: Blank (no marker), BSA 1.0 × 10^-6 mol/L.
Setting [12] is: Site marker: Ibuprofen 2 × 10^-6 mol/L, BSA 1.0 × 10^-6 mol/L.
The mark [13] stands for this setting: Site marker: Warfarin 2 × 10^-6 mol/L, BSA 1.0 × 10^-6 mol/L.
[14] abbreviates: BSA 1.0 × 10^-6 mol/L, drug 5.0 × 10^-6 mol/L.
[15] abbreviates: BSA 1.0 × 10^-6 mol/L, drug 5.0 × 10^-6 mol/L, phosphate buffer, 298.15 K.
Setting [16] is: BSA 1 × 10^-6 mol/L, drug 5 × 10^-6 mol/L, λex 295 nm, λem 350 nm.
[17] abbreviates: BSA 1 × 10^-6 mol/L, drug 5 × 10^-6 mol/L.
Where [18] appears, read: drug:BSA 5:1, Peak 1, BSA 3 × 10^-6 mol/L.
[19] abbreviates: drug:BSA 5:1, Peak 1, BSA alone 9750.
Where [20] appears, read: drug:BSA 5:1, Peak 1, blue shift.
The mark [21] stands for this setting: drug:BSA 5:1, Peak 2, BSA 3 × 10^-6 mol/L.
[22] abbreviates: drug:BSA 5:1, Peak 2, BSA alone 7937.
Setting [23] is: drug:BSA 5:1, Peak 2, blue shift.
The mark [24] stands for this setting: drug:BSA 10:1, Peak 1, BSA 3 × 10^-6 mol/L.
Where [25] appears, read: drug:BSA 10:1, Peak 1, BSA alone 9750.
Setting [26] is: drug:BSA 10:1, Peak 1, blue shift.
The mark [27] stands for this setting: drug:BSA 10:1, Peak 2, BSA 3 × 10^-6 mol/L.
The mark [28] stands for this setting: drug:BSA 10:1, Peak 2, BSA alone 7937.
[29] abbreviates: drug:BSA 10:1, Peak 2, blue shift.
The mark [30] stands for this setting: BSA 2 × 10^-6 mol/L, drug 0–33 × 10^-6 mol/L, pH 7.4, 298.15 K.
[31] abbreviates: BSA 2 × 10^-6 mol/L, pH 7.4, 298.15 K.
Setting [32] is: BSA 2 × 10^-6 mol/L, phosphate buffer pH 7.40, λex 295 nm.
[33] abbreviates: slope of double logarithmic plot, 298 K.

T1 sequence (P02769 25-607): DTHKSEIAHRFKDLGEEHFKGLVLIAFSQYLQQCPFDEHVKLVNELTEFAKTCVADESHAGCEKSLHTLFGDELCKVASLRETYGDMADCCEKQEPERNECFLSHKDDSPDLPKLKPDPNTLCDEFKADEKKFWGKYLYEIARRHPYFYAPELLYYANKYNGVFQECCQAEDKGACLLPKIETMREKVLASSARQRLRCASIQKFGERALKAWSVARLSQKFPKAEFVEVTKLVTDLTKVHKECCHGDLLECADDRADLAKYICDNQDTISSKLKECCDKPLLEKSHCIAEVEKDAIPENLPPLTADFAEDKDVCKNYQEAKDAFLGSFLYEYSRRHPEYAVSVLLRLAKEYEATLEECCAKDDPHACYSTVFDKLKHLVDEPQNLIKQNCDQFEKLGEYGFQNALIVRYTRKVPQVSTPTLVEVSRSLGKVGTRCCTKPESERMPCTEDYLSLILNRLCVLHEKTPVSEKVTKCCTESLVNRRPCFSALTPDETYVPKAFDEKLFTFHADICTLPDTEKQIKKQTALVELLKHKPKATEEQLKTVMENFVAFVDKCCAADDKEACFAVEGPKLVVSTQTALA

For the compound `CC[C@@]1(O)C(=O)OCc2c1cc1n(c2=O)Cc2cc3cc(O)ccc3nc2-1` [10-HCPT, 10-Hydroxycamptothecin], the “ΔΔG between experimental and theoretical binding energy” value in [1] was “≈ 10.51 kJ·mol^−1”. Further, binding in data set [2] (setting [11]) was put at a Kd of 120 µM. Moreover, the Kd – broadly, the equilibrium constant for the complex coming apart – in data set [2] (setting [12]) is 44.7 µM. Moreover, in data set [2] (setting [13]), the Kd is 1510 µM. For the same compound, in [3], the Emission maximum shift is listed as 15 nm; the λex/λem is 225/325 and 275/325. In [4] (setting [14]), the “blue shift of the UV absorption peak of BSA at 280 nm” value (from here on “blue shift … at 280 nm”) stood at 2 nm. Moreover, the “Changes in absorption peaks (280 nm)” value in data set [4] (setting [15]) stood at 280 nm→278 nm. In addition, in [5] (setting [16]), the “A1 (decay amplitude)” value is given as 0.8806, the “A2 (decay amplitude)” value is listed as 0.1858, the τ1 is listed as 2.239 ns and the τ2 is on record as 7.483 ns. The “τave (average fluorescence lifetime)” value in data set [5] (setting [17]) is on record as 4.41 ns. In data set [6], the affinity, expressed as Kd, was 121 µM; the “Kq (bimolecular quenching constant)” value was 23.79 ×10^11 L·mol^− 1·s^− 1; the “n (number of binding sites per BSA molecule)” value turned out to be 0.8809. Also, in data set [6] (pH 7.4), the “Ksv (Stern-Volmer quenching constant)” value was 14.99 ×10^3 L·mol^− 1, the “Stern–Volmer equation Slope” value was 14986.88 ± 1787.60 and the “blue shift of the maximum fluorescence emission peak of BSA (Δλmax)” value (“blue shift … (Δλmax)” for short) came to 11.8 nm.
For the compound `CC[C@@]1(O)C(=O)OCc2c1cc1n(c2=O)Cc2cc3ccccc3nc2-1` [CPT, Camptothecin], the Kd is 234 µM in data set [2] (setting [11]), 759 µM in data set [2] (setting [12]), 5500 µM in data set [2] (setting [13]) and 236 µM in data set [6]. For the same compound, the “Reduction percent (fluorescence intensity)” value in [3] (drug:BSA 5:1, Peak 1) is listed as 65%; in [3] (drug:BSA 5:1, Peak 2), 30%; in [3] (drug:BSA 10:1, Peak 1), 67%; in data set [3] (drug:BSA 10:1, Peak 2) it was 33%. For the same compound, the λex/λem in data set [3] (setting [18]) is 275/340; in [3] (setting [21]) it was 225/340; in data set [3] (setting [24]), 275/340; in data set [3] (setting [27]), 225/340. Moreover, the Intensity was 3382 in data set [3] (setting [19]), 5518 in data set [3] (setting [22]), 3179 in data set [3] (setting [25]) and 5323 in data set [3] (setting [28]). Besides, the Emission maximum shift in [3] (setting [20]), in data set [3] (setting [23]), in [3] (setting [26]) and in data set [3] (setting [29]) was 0 nm throughout. The “blue shift … at 280 nm” value in [4] (setting [14]) came to 3 nm. Also, in data set [4] (setting [15]), the “Changes in absorption peaks (280 nm)” value is 280 nm→277 nm. Further, the “A1 (decay amplitude)” value in data set [5] (setting [16]) came to 0.7855. In addition, in data set [5] (setting [16]), the “A2 (decay amplitude)” value turned out to be 0.2263. Further, in data set [5] (setting [16]), the τ1 is reported as 1.889 ns. The τ2 in data set [5] (setting [16]) is listed as 5.78 ns. In addition, the “τave (average fluorescence lifetime)” value in data set [5] (setting [17]) is reported as 3.71 ns. Also, the “Stern–Volmer equation Slope” value in data set [6] (setting [30]) came to 18536.73 ± 2298.23. Moreover, the “Ksv (Stern-Volmer quenching constant)” value in [6] (setting [31]) was 18.53 ×10^3 L·mol^− 1. Besides, the “blue shift … (Δλmax)” value in [6] (setting [32]) was determined as 1.4 nm. In addition, the “Kq (bimolecular quenching constant)” value in [6] (Kq = KSV/τ0, τ0 6.3 × 10^-9 s) is 29.41 ×10^11 L·mol^− 1·s^− 1. The “n (number of binding sites per BSA molecule)” value in data set [6] (setting [33]) was 0.8287.
`CCc1c2c(nc3ccc(OC(=O)N4CCC(N5CCCCC5)CC4)cc13)-c1cc3c(c(=O)n1C2)COC(=O)[C@]3(O)CC` [CPT-11, Irinotecan]: the “Changes in absorption peaks (280 nm)” value in [4] worked out at 280 nm→258 nm. This compound also had a τ2 in data set [5] of 7.79 ns.
Regarding `CC[C@@]1(O)C(=O)OCc2c1cc1n(c2=O)Cc2cc3c(CN(C)C)c(O)ccc3nc2-1` [TPT, Topotecan], the ΔS in data set [7] was found to be 0.066 kJ·mol^− 1·K^− 1. The “molar fraction at maximum fluorescence intensity change (Job's plot)” value in data set [8] worked out at 0.5. For the same compound, the Kd in data set [2] was 12.6 µM and 6.61 µM and 12 µM; in data set [9] (293 K) it was 3.98 µM; in data set [9] (298 K) it was 4.37 µM; in data set [9] (310 K), 5.13 µM; in data set [6] it was 11 µM. The λex/λem is on record as 275/340 in data set [3] (setting [18]), 225/340 in [3] (setting [21]), 275/325 in data set [3] (setting [24]) and 225/320 in [3] (setting [27]). For the same compound, the Intensity in [3] (setting [19]) is on record as 8453; in [3] (setting [22]), 5380; in data set [3] (setting [25]), 4956; in [3] (setting [28]) it was 2777. Besides, the Emission maximum shift in [3] (setting [20]) is listed as 0 nm; in data set [3] (setting [23]), 0 nm; in [3] (setting [26]), 15 nm; in [3] (setting [29]), 20 nm. Besides, the “circulation t1/2” value in data set [10] was “≈ 8 h”. In [4] (setting [14]), the “blue shift … at 280 nm” value is reported as 12 nm. The “Changes in absorption peaks (280 nm)” value in data set [4] (setting [15]) is recorded as 280 nm→268 nm. For the same compound, in [5] (setting [16]), the “A1 (decay amplitude)” value is 0.8636. Also, the “A2 (decay amplitude)” value in data set [5] (setting [16]) worked out at 0.1543. For the same compound, the τ1 in [5] (setting [16]) was 1.699 ns. This compound showed a τ2 in [5] (setting [16]) of 7.6602 ns. The “τave (average fluorescence lifetime)” value in data set [5] (setting [17]) was found to be 4.36 ns. The “Stern–Volmer equation Slope” value in [6] (setting [30]) was found to be 29101.32 ± 782.38. Further, in [6] (setting [31]), the “Ksv (Stern-Volmer quenching constant)” value was 29.10 ×10^3 L·mol^− 1. Moreover, the “blue shift … (Δλmax)” value in [6] (setting [32]) is 1.0 nm. Further, the “Kq (bimolecular quenching constant)” value in data set [6] (Kq = KSV/τ0, τ0 6.3 × 10^-9 s) is 46.19 ×10^11 L·mol^− 1·s^− 1. Also, the “KSV” value in data set [6] (as quoted in the discussion of Table 2) is on record as 29.10 × 10^2 M^− 1. Besides, in [6] (setting [33]), the “n (number of binding sites per BSA molecule)” value came out at 1.1165.
